{"source": "patent US20120203161A1", "about": "“DEUTERATED WATER AND RIBOFLAVIN SOLUTION FOR EXTENDING SINGLET OXYGEN LIFETIMES IN TREATMENT OF OCULAR TISSUE AND METHOD OF USE” (SEROS MEDICAL, LLC, priority 2009, published 2012)", "system": "endothelial cell", "data": [{"compound": "[2H]O[2H]", "note": "[deuterated water, deuterium oxide]", "values": [{"measurement": "endothelial cell apoptosis", "result": "does not induce endothelial cell apoptosis"}]}]}
